Key:
Experiment in all cases: General post-emergent herbicidal activity, foliar application
Format in all cases: in vivo
[1] = system: Euphorbia heterophylla L. (poinsettia, wild); conditions: for pest or weed control at 70 g/ha: 70 g ai/ha; for pest or weed control at 140 g/ha: 140 g ai/ha; for GR80 Value EPHHL: calculated by probit analysis, dose for 80% visual injury, may be extrapolated
Experimental: (§1) A weighed amount, determined by the highest rate to be tested, of each test compound was placed in a 25 mL glass vial and was dissolved in 4 mL of a 97:3 v/v (volume/volume) mixture of acetone and dimethyl sulfoxide to obtain concentrated stock solutions which will be referred to as General Purpose Solvent. […] The concentrated stock solutions obtained were diluted with 20 mL of an aqueous mixture containing water, General Purpose Solvent, isopropyl alcohol, Atplus 411F crop oil concentrate, and Triton X-155 surfactant in a 46:42:12:1.0:0.02 v/v ratio to obtain spray solutions containing the highest application rates. Additional application rates were obtained by serial dilution of 12 mL of the high rate solution into a solution containing 2 mL of 97:3 v/v (volume/volume) mixture of acetone and dimethyl sulfoxide and 10 mL of an aqueous mixture containing water, General Purpose Solvent, isopropyl alcohol, Atplus 411F crop oil concentrate, and Triton X-155 surfactant in a 46:42:12:1.0:0.02 v/v ratio to obtain 1/2×, 1/4×, 1/8× and 1/16× rates of the high rate. […] Control plants were sprayed in the same manner with the solvent blank.
(§2) The treated plants and control plants were placed in a greenhouse as described above and watered by sub-irrigation to prevent wash-off of the test compounds. After 14 days, the condition of the test plants as compared with that of the untreated plants was determined visually and scored on a scale of 0 to 100 percent where 0 corresponds to no injury and 100 corresponds to complete kill.
(§3) By applying the well-accepted probit analysis as described by J. Berkson in […], 48, 565 (1953) and by D. Finney in “Probit Analysis” Cambridge University Press (1952), the dose response data gathered as expressed above can be used to calculate GR20, GR50 and GR80 values, which are defined as growth reduction factors that correspond to the effective dose of herbicide required to kill or control 20 percent, 50 percent or 80 percent, respectively, of a target plant. Data not expressed in Table A may have been used to calculate some of the GR80 values in Table B. In some cases, the GR80 values may be extrapolations calculated based on the slope of the dose response curve for individual compounds listed in Table B.

[2] = system: Echinochloa crus-galli (L.) Beauv. (barnyardgrass); conditions: for pest or weed control at 70 g/ha: 70 g ai/ha; for pest or weed control at 140 g/ha: 140 g ai/ha; for GR80 Value ECHCG: calculated by probit analysis, dose for 80% visual injury, may be extrapolated
Experimental: as §1, §2, §3

[3] = system: Chenopodium album L. (lambsquarters, common); conditions: for pest or weed control at 70 g/ha: 70 g ai/ha; for pest or weed control at 140 g/ha: 140 g ai/ha; for GR80 Value CHEAL: calculated by probit analysis, dose for 80% visual injury, may be extrapolated
Experimental: as §1, §2, §3

[4] = system: Viola tricolor L. (pansy); conditions: for pest or weed control at 70 g/ha: 70 g ai/ha; for pest or weed control at 140 g/ha: 140 g ai/ha; for GR80 Value VIOTR: calculated by probit analysis, dose for 80% visual injury, may be extrapolated
Experimental: as §1, §2, §3

[5] = system: Helianthus annuus L. (sunflower, common); conditions: for pest or weed control at 70 g/ha: 70 g ai/ha; for pest or weed control at 140 g/ha: 140 g ai/ha; for GR80 Value HELAN: calculated by probit analysis, dose for 80% visual injury, may be extrapolated
Experimental: as §1, §2, §3

[6] = system: Amaranthus retroflexus L. (pigweed, redroot); conditions: for pest or weed control at 70 g/ha: 70 g ai/ha; for pest or weed control at 140 g/ha: 140 g ai/ha; for GR80 Value AMARE: calculated by probit analysis, dose for 80% visual injury, may be extrapolated
Experimental: as §1, §2, §3

Zea mays L. (corn) = conditions: 336 h, scored after 14 days, read-out: % Visual Growth Reduction ZEAMX; for plant injury at 70 g/ha: 70 g ai/ha; for plant injury at 140 g/ha: 140 g ai/ha
Experimental: as §1, §2

Oryza sativa L. (rice) = conditions: Oryza sativa, 336 h, scored after 14 days, read-out: % Visual Growth Reduction ORYSA; for plant injury at 70 g/ha: 70 g ai/ha; for plant injury at 140 g/ha: 140 g ai/ha
Experimental: as §1, §2

[7] = Euphorbia heterophylla, 336 h, foliar post-emergent, scored after 14 days, read-out: % Visual Growth Reduction EPHHL
[8] = Echinochloa crus-galli, 336 h, foliar post-emergent, scored after 14 days, read-out: % Visual Growth Reduction ECHCG
[9] = Chenopodium album, 336 h, foliar post-emergent, scored after 14 days, read-out: % Visual Growth Reduction CHEAL
[10] = Viola tricolor, 336 h, foliar post-emergent, scored after 14 days, read-out: % Visual Growth Reduction VIOTR
[11] = Helianthus annuus, 336 h, foliar post-emergent, scored after 14 days, read-out: % Visual Growth Reduction HELAN
[12] = Amaranthus retroflexus, 336 h, foliar post-emergent, scored after 14 days, read-out: % Visual Growth Reduction AMARE

COC(=O)c1nc(C(F)F)c(Cl)c(N)c1Cl [Compound F7, Methyl 4-amino-3,5-dichloro-6-(difluoromethyl)picolinate]
pest or weed control at 70 g/ha [1, 7]: 90%
pest or weed control at 140 g/ha [1, 7]: 100%
pest or weed control at 280 g/ha ([1]; Euphorbia heterophylla, 336 h, 280 g ai/ha, foliar post-emergent, scored after 14 days, read-out: % Visual Growth Reduction EPHHL): 100%
GR80 Value EPHHL [1]: 17.5 g ai/ha
pest or weed control at 70 g/ha [2, 8]: 0%
pest or weed control at 140 g/ha [2, 8]: 0%
pest or weed control at 280 g/ha ([2]; Echinochloa crus-galli, 336 h, 280 g ai/ha, foliar post-emergent, scored after 14 days, read-out: % Visual Growth Reduction ECHCG): 0%
GR80 Value ECHCG [2]: >280 g ai/ha
pest or weed control at 70 g/ha [3, 9]: 0%
pest or weed control at 140 g/ha [3, 9]: 0%
pest or weed control at 280 g/ha ([3]; Chenopodium album, 336 h, 280 g ai/ha, foliar post-emergent, scored after 14 days, read-out: % Visual Growth Reduction CHEAL): 0%
GR80 Value CHEAL [3]: >280 g ai/ha
pest or weed control at 70 g/ha [4, 10]: 0%
pest or weed control at 140 g/ha [4, 10]: 0%
pest or weed control at 280 g/ha ([4]; Viola tricolor, 336 h, 280 g ai/ha, foliar post-emergent, scored after 14 days, read-out: % Visual Growth Reduction VIOTR): 0%
GR80 Value VIOTR [4]: >280 g ai/ha
pest or weed control at 70 g/ha [5, 11]: 60%
pest or weed control at 140 g/ha [5, 11]: 80%
pest or weed control at 280 g/ha ([5]; Helianthus annuus, 336 h, 280 g ai/ha, foliar post-emergent, scored after 14 days, read-out: % Visual Growth Reduction HELAN): 90%
GR80 Value HELAN [5]: 145 g ai/ha
pest or weed control at 70 g/ha [6, 12]: 75%
pest or weed control at 140 g/ha [6, 12]: 90%
pest or weed control at 280 g/ha ([6]; Amaranthus retroflexus, 336 h, 280 g ai/ha, foliar post-emergent, scored after 14 days, read-out: % Visual Growth Reduction AMARE): 100%
GR80 Value AMARE [6]: 84.2 g ai/ha
plant injury at 70 g/ha (Zea mays L. (corn)): 0%
plant injury at 140 g/ha (Zea mays L. (corn)): 0%
plant injury at 280 g/ha (Zea mays L. (corn); 280 g ai/ha): 10%
plant injury at 70 g/ha (Oryza sativa L. (rice)): 0%
plant injury at 140 g/ha (Oryza sativa L. (rice)): 0%
plant injury at 280 g/ha (Oryza sativa L. (rice); 280 g ai/ha): 0%

COC(=O)c1nc(C(C)(C)F)c(F)c(N)c1Cl [Compound F8, Methyl 4-amino-3-chloro-5-fluoro-6-(2-fluoropropan-2-yl)picolinate]
pest or weed control at 40 g/ha ([1]; Euphorbia heterophylla, 336 h, 40 g ai/ha, foliar post-emergent, scored after 14 days, read-out: % Visual Growth Reduction EPHHL): 90%
pest or weed control at 80 g/ha ([1]; Euphorbia heterophylla, 336 h, 80 g ai/ha, foliar post-emergent, scored after 14 days, read-out: % Visual Growth Reduction EPHHL): 100%
pest or weed control at 160 g/ha ([1]; Euphorbia heterophylla, 336 h, 160 g ai/ha, foliar post-emergent, scored after 14 days, read-out: % Visual Growth Reduction EPHHL): 100%
GR80 Value EPHHL [1]: 17.9 g ai/ha
pest or weed control at 40 g/ha ([2]; Echinochloa crus-galli, 336 h, 40 g ai/ha, foliar post-emergent, scored after 14 days, read-out: % Visual Growth Reduction ECHCG): 0%
pest or weed control at 80 g/ha ([2]; Echinochloa crus-galli, 336 h, 80 g ai/ha, foliar post-emergent, scored after 14 days, read-out: % Visual Growth Reduction ECHCG): 0%
pest or weed control at 160 g/ha ([2]; Echinochloa crus-galli, 336 h, 160 g ai/ha, foliar post-emergent, scored after 14 days, read-out: % Visual Growth Reduction ECHCG): 50%
GR80 Value ECHCG [2]: 213 g ai/ha
pest or weed control at 40 g/ha ([3]; Chenopodium album, 336 h, 40 g ai/ha, foliar post-emergent, scored after 14 days, read-out: % Visual Growth Reduction CHEAL): 90%
pest or weed control at 80 g/ha ([3]; Chenopodium album, 336 h, 80 g ai/ha, foliar post-emergent, scored after 14 days, read-out: % Visual Growth Reduction CHEAL): 90%
pest or weed control at 160 g/ha ([3]; Chenopodium album, 336 h, 160 g ai/ha, foliar post-emergent, scored after 14 days, read-out: % Visual Growth Reduction CHEAL): 90%
GR80 Value CHEAL [3]: 36.9 g ai/ha
pest or weed control at 40 g/ha ([4]; Viola tricolor, 336 h, 40 g ai/ha, foliar post-emergent, scored after 14 days, read-out: % Visual Growth Reduction VIOTR): 10%
pest or weed control at 80 g/ha ([4]; Viola tricolor, 336 h, 80 g ai/ha, foliar post-emergent, scored after 14 days, read-out: % Visual Growth Reduction VIOTR): 50%
pest or weed control at 160 g/ha ([4]; Viola tricolor, 336 h, 160 g ai/ha, foliar post-emergent, scored after 14 days, read-out: % Visual Growth Reduction VIOTR): 70%
GR80 Value VIOTR [4]: 185 g ai/ha
pest or weed control at 40 g/ha ([5]; Helianthus annuus, 336 h, 40 g ai/ha, foliar post-emergent, scored after 14 days, read-out: % Visual Growth Reduction HELAN): 90%
pest or weed control at 80 g/ha ([5]; Helianthus annuus, 336 h, 80 g ai/ha, foliar post-emergent, scored after 14 days, read-out: % Visual Growth Reduction HELAN): 90%
pest or weed control at 160 g/ha ([5]; Helianthus annuus, 336 h, 160 g ai/ha, foliar post-emergent, scored after 14 days, read-out: % Visual Growth Reduction HELAN): 90%
GR80 Value HELAN [5]: 18.6 g ai/ha
pest or weed control at 40 g/ha ([6]; Amaranthus retroflexus, 336 h, 40 g ai/ha, foliar post-emergent, scored after 14 days, read-out: % Visual Growth Reduction AMARE): 90%
pest or weed control at 80 g/ha ([6]; Amaranthus retroflexus, 336 h, 80 g ai/ha, foliar post-emergent, scored after 14 days, read-out: % Visual Growth Reduction AMARE): 100%
pest or weed control at 160 g/ha ([6]; Amaranthus retroflexus, 336 h, 160 g ai/ha, foliar post-emergent, scored after 14 days, read-out: % Visual Growth Reduction AMARE): 100%
GR80 Value AMARE [6]: 25.1 g ai/ha
plant injury at 40 g/ha (Zea mays L. (corn); 40 g ai/ha): 0%
plant injury at 80 g/ha (Zea mays L. (corn); 80 g ai/ha): 0%
plant injury at 160 g/ha (Zea mays L. (corn); 160 g ai/ha): 0%
plant injury at 40 g/ha (Oryza sativa L. (rice); 40 g ai/ha): 0%
plant injury at 80 g/ha (Oryza sativa L. (rice); 80 g ai/ha): 0%
plant injury at 160 g/ha (Oryza sativa L. (rice); 160 g ai/ha): 8%

COC(=O)c1nc(C(C)(C)F)cc(N)c1Cl [Compound F9, methyl 4-amino-3-chloro-6-(2-fluoropropan-2-yl)picolinate]
pest or weed control at 70 g/ha [1, 7]: 85%
pest or weed control at 140 g/ha [1, 7]: 100%
GR80 Value EPHHL [1]: 49.4 g ai/ha
pest or weed control at 70 g/ha [2, 8]: 0%
pest or weed control at 140 g/ha [2, 8]: 0%
GR80 Value ECHCG [2]: >140 g ai/ha
pest or weed control at 70 g/ha [3, 9]: 70%
pest or weed control at 140 g/ha [3, 9]: 85%
GR80 Value CHEAL [3]: 110 g ai/ha
pest or weed control at 70 g/ha [4, 10]: 40%
pest or weed control at 140 g/ha [4, 10]: 30%
GR80 Value VIOTR [4]: >140 g ai/ha
pest or weed control at 70 g/ha [5, 11]: 50%
pest or weed control at 140 g/ha [5, 11]: 50%
GR80 Value HELAN [5]: 237 g ai/ha
pest or weed control at 70 g/ha [6, 12]: 100%
pest or weed control at 140 g/ha [6, 12]: 100%
GR80 Value AMARE [6]: 13.7 g ai/ha
plant injury at 70 g/ha (Zea mays L. (corn)): 0%
plant injury at 140 g/ha (Zea mays L. (corn)): 15%
plant injury at 70 g/ha (Oryza sativa L. (rice)): 0%
plant injury at 140 g/ha (Oryza sativa L. (rice)): 0%

— patent US9603364B2 (Dow AgroSciences LLC, priority 2013, dated 2017)
